{"source": "patent US7419960B2", "about": "“Hemiterpene glycosides with anti-platelet aggregation activities from Ilex pubescens” (Hong Kong Baptist University, priority 2005, dated 2008)", "tested_on": "platelet-rich-plasma (PRP)", "assay": "Shear-induced platelet aggregation (SIPA) in platelet-rich-plasma, determined by turbidity", "assay_type": "cell-based, Sprague-Dawley rats", "conditions": "10 μM; for Platelet aggregation rate (%) ( X ± SD): n=10, rat PRP, shear stress 15 Pa for 360 seconds, 37° C., PPP = 100%, pre-shear PRP = 0% aggregation, Control 54.400 ± 8.592; for anti-platelet aggregation activity compared with salvianolic acid B and aspirin: high shear stress-induced platelet activation and aggregation test", "method": "Preparation of platelet-rich-plasma (PRP): Sprague-Dawley rats (350-450 g) were used as blood donors to collect anticoagulated blood. Collected blood samples were immediately transferred into a plastic tube anticoagulant ( 1/10 volume of 3.8% trisodium citrate, pH 7.4). The platelet-rich-plasma (PRP) was then prepared by centrifuging the blood at 300 rpm for 15 minutes. The platelet concentration was adjusted to a level of 5×10^5/μl by addition of homologous platelet-poor-plasma (PPP) obtained after further centrifugation of blood at 1500 rpm for 15 minutes. For getting sufficient amount of PRP, at least two rats have to be sacrificed each time to obtain a pooled PRP sample.\nShear-induced platelet aggregation (SIPA): Adjusted PRP was divided into different groups according to the experimental protocol, mixed with 10 μM of pubescenosides A, B, aspirin and Salvianolic acid B. HAAke Rheometer RS 600 (Thermo Haake Corp., Ltd., Germany) with sensor C60/0.5° was employed as shear generator. The rheometer has the benefit of controlling shear stress and with an accuracy of 1 μm by the automatic adjustment of the gap between cone and plate. The shear program for PRP is: preheating sample at 37° C., increasing stress level from 0 to 15 Pa in the duration of 30 seconds, and then maintaining the stress level at 15 Pa for 360 seconds. After shearing, PRP was transferred to a platelet aggregometer (Chrono-Log aggregometer, Model 560 CA, Chrono-Log Corp., U.S.A) and SIPA was determined by turbidity. Since platelet-poor-plasma (PPP) and the pre-shear PRP were used as the turbidity scales of 100% and 0% aggregation, respectively, the aggregative degree of post-shear PRP could be measured.", "note": "Marks after values point to notes of the source that are not given here."}
{"compound": "C=C(COC(=O)/C=C/c1ccc(O)c(O)c1)C(O)CO[C@@H]1O[C@H](CO)[C@@H](O)[C@H](O)[C@H]1O", "note": "(stereo partly drawn) [Pubescenoside A, 4-caffeoyloxy-2-hydroxy-3-methylene-butane-1-O-β-D-glucopyranoside]", "values": [{"measurement": "Platelet aggregation rate (%) ( X ± SD)", "value": "36.550 ± 7.697*^▪▴ %"}, {"measurement": "anti-platelet aggregation activity compared with salvianolic acid B and aspirin", "value": "much stronger"}]}
{"compound": "CC(=O)Oc1ccccc1C(=O)O", "note": "[Aspirin, aspirin, reference compound]", "values": [{"measurement": "Platelet aggregation rate (%) ( X ± SD)", "value": "44.700 ± 4.668", "unit": "%"}]}
{"compound": "C=C(CO)C(CO[C@@H]1OC(CO)[C@@H](O)C(O)C1O)OC(=O)/C=C/c1ccc(O)c(O)c1", "note": "(stereo partly drawn) [Pubescenoside B, 4-hydroxy-2-caffeoyloxy-3-methylene-butane-1-O-β-D-glucopyranoside]", "values": [{"measurement": "Platelet aggregation rate (%) ( X ± SD)", "value": "27.300 ± 10.263*^□ %"}, {"measurement": "anti-platelet aggregation activity compared with salvianolic acid B and aspirin", "value": "much stronger"}]}
{"compound": "O=C(/C=C/c1ccc(O)c2c1[C@H](C(=O)O[C@H](Cc1ccc(O)c(O)c1)C(=O)O)[C@@H](c1ccc(O)c(O)c1)O2)O[C@H](Cc1ccc(O)c(O)c1)C(=O)O", "note": "[Salvianolic acid B, salvianolic acid B, reference compound]", "values": [{"measurement": "Platelet aggregation rate (%) ( X ± SD)", "value": "39.650 ± 8.577", "unit": "%"}]}
